One data set deals with T1, D-AAO (Sus scrofa, UniProt P00371).
T1 construct: purchased Sigma A-5222; host or cells: swine kidney
Description: D-AAO microplate test for detection of D-amino acids. It is filed as biochemical, swine. Conditions: raw OD. The source says: The D-AAO/HRP test described here above can also be used for this purpose with slight modifications. For that purpose, the racemase reaction step should be skipped and the microplate test should start straightforward at the II-1-2.1-2 step described above with the following remarks:
1) Standard: It should not be an equimolar mixture of D- and L-amino acid, but rather a serial dilution of D-Amino acids. The choice of amino acid is made according to the interest of the D-amino acid under investigation. The final volume in wells should be of 87 μl.
2) Negative control: It is made with the L-enantiomer of the D-amino acid under investigation. The final volume should be 87 μl.
3) Blank: It is made with 87 μl buffer*. (See paragraph II.1.1 Materials.)
4) Samples: The samples to be tested should be adjusted to pH 8.3 with buffer* and their final volumes should be of 87 μl per well.
5) Then, the procedure follows steps 3) to 6), as above.
Different L- and D-amino acids were tested, namely Tyrosine (Tyr), Valine (Val), Threonine (Thr), Glutamic acid (Glu), Lysine (Lys) and Tryptophan (Try).

For a further data set, the system named is B cells. The note with it: TcPRAC inhibited by the compound; cited from earlier work.
The subject of data set [1] is non-infected monkey cell cultures.
A further data set has as its target T2, CsPR (Acetoanaerobium sticklandii, UniProt E3PTZ4).
T2 sequence (E3PTZ4 1-335): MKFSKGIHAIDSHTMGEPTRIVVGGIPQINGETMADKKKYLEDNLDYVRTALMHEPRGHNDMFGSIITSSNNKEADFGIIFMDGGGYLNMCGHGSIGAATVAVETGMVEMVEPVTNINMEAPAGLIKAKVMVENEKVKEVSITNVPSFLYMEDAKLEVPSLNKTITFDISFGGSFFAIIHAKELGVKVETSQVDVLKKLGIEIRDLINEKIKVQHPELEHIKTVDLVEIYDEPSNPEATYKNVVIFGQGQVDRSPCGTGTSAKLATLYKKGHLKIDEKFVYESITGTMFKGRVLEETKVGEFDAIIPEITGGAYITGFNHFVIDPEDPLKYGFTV
The note with it: cited from earlier work.

Data set [2] concerns the target native protein obtained from a soluble epimastigote fraction (proline racemase) (Trypanosoma cruzi, UniProt Q868H8). Nature of the data set: Kinetic assays using the native protein from a soluble epimastigote fraction. It is filed as biochemical. The source says: The progress of racemization reaction was monitored polarimetrically, as previously described (13). […] Values obtained were confirmed by using the Kaleïdagraph® program and Michaelis-Menten equation. […] C.

The target of a further data set is D-AAO/HRP (Sus scrofa, UniProt P00371). Nature of the data set: Interference with the D-AAO/HRP reaction. It is filed as biochemical, swine.
D-AAO/HRP, sequence (P00371 whole entry): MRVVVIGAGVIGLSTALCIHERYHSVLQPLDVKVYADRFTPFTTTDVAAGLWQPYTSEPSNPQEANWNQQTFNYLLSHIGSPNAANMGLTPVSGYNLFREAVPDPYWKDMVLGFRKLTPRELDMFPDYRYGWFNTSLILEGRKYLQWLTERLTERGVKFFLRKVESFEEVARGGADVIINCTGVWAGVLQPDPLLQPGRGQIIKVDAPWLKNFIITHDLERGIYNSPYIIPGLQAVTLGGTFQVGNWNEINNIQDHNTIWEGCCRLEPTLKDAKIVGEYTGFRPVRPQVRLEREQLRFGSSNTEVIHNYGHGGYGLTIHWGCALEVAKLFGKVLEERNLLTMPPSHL

Structures are written as SMILES. pKi: −log10 of the molar value. Several values for one entry are separate records, joined by “and”; a condition that tells them apart may be missing. Equal entries are not always repeated.

Results on 15 compounds are retold here after US20120058135A1, “Identification and characterization of racemases, definition of protein signatures, and a test for detecting D-amino acid and for screening molecules capable of inhibiting the activity of racemase, especially proline racemase” (Institut Pasteur, priority 2010, published 2012).

One may read the pKi as the Ki on a negative log10 scale, so that one unit is a factor of ten.

T1 sequence (P00371 whole entry): as above
native protein obtained from a soluble epimastigote fraction (proline racemase), sequence (Q868H8 whole entry): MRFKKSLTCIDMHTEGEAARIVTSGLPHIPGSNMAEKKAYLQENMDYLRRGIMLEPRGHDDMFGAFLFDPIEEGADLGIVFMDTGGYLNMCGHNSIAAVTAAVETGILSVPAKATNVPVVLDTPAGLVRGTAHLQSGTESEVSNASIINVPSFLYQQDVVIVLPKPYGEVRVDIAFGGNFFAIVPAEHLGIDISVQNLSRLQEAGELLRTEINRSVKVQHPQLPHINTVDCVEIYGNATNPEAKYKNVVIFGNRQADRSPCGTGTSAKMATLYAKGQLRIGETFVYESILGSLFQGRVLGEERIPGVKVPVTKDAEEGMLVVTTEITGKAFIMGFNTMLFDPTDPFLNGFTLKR

As to `CC(C)[C@H](N)C(=O)O` [L-Val, Valine], at D-AAO (L-enantiomers, 12.5 mM), the “Optical density at 490 nm after D-AAO reaction” value (“Optical density at 490 nm” below) is 0.135 and 0.129. The same measure, in the same setting: in the case of `N[C@@H](Cc1ccc(O)cc1)C(=O)O` [L-Tyr, Tyrosine] it was 0.193 and 0.141. The same measure, in the same setting: in the case of `N[C@@H](CCC(=O)O)C(=O)O` [L-Glu, Glutamic acid] it was 0.131 and 0.141; in that of `N[C@@H](Cc1c[nH]c2ccccc12)C(=O)O` [L-Try, Tryptophan], 0.131 and 0.138. `CC(C)[C@H](N)C(=O)O` [D-Val, Valine]: the “Optical density at 490 nm” value on D-AAO (D-enantiomers, 6.25 mM) was 1.683 and 1.612. Take `O=C(O)c1ccc[nH]1` [PAC, pyrrole-2-carboxylic acid]: the “TcPRAC B cell mitogenic ability” value in the data set on B cells is listed as “total loss of TcPRAC B cell mitogenic ability”. Besides, the “interference with cellular growth” value in data set [1] is on record as “do not interfere with cellular growth”. For the same compound, the pKi on CsPR was 4.74; in data set [2] it was 5.94. Besides, at D-AAO/HRP, the “effect on D-AAO/HRP reaction” value is given as “does not influence DAAO/HRP reaction”. `C[C@@H](O)[C@H](N)C(=O)O` [L-Thr, Threonine]: the “Optical density at 490 nm” value on D-AAO (L-enantiomers, 12.5 mM) is 0.124 and 0.128. In the case of `N[C@@H](Cc1ccc(O)cc1)C(=O)O` [D-Tyr, Tyrosine], the “Optical density at 490 nm” value at D-AAO (D-enantiomers, 6.25 mM) is 1.317 and 0.991. Same read-out and setting: in the case of `N[C@@H](Cc1c[nH]c2ccccc12)C(=O)O` [D-Try, Tryptophan] it was 0.615 and 0.662; in that of `N[C@@H](CCC(=O)O)C(=O)O` [D-Glu, Glutamic acid], 0.147 and 0.116. Consider `O=C(O)[C@H]1CCCN1` [D-pro, D-Proline], for which the “Optical density at 490 nm” value was 0.173 on D-AAO (0.05 mM); 0.213 and 0.215 at D-AAO (0.09 mM); 0.308 and 0.32 at D-AAO (0.19 mM); 0.496 and 0.504 on D-AAO (0.39 mM); 0.809 and 0.824 at D-AAO (0.77 mM); 1.234 and 1.221 at D-AAO (1.55 mM). The “Optical density at 490 nm” value was 1.716 and 1.879 at D-AAO (3.09 mM); 1.983 and 1.949 on D-AAO (6.19 mM); 1.814 and 1.976 at D-AAO (12.37 mM); 1.757 and 1.885 on D-AAO (24.75 mM); 1.961 and 2.004 at D-AAO (49.5 mM). Take `NCCCC[C@H](N)C(=O)O` [D-Lys, Lysine]: at D-AAO (D-enantiomers, 6.25 mM), the “Optical density at 490 nm” value is 0.243 and 0.157. With `O=C(O)[C@@H]1CCCN1` [L-Proline], at D-AAO/HRP, the “effect on D-AAO/HRP reaction” value is recorded as “Inhibits”.

With `NCCCC[C@H](N)C(=O)O` [L-Lys, Lysine], the “Optical density at 490 nm” value on D-AAO (L-enantiomers, 12.5 mM) was 0.125 and 0.131. For `C[C@@H](O)[C@H](N)C(=O)O` [D-Thr, Threonine], at D-AAO (D-enantiomers, 6.25 mM), the “Optical density at 490 nm” value was 0.215 and 0.157.
